Series [1] in a line: Stability in cell culture. The format is in vitro ADME. Particulars: HL-60 and RPMI-8226 cultures, 500 ng/ml. As for the experimental part: HL60 and RPMI-8226 cells were maintained in cell culture medium in the presence or absence of 20% fetal bovine serum. 2-OMeA1 (500 ng/ml) was added to a culture containing 200,000 cells/ml, and to another flask containing only the medium. From the flasks, portions were removed at various times and, as appropriate, centrifuged to collect cells. Samples of cell-free medium, to which NaF/EDTA was added, were extracted. Collected cells were suspended in phosphate-buffered saline (PBS) containing NaF/EDTA, subjected to sonication, and then extracted and analyzed.

The next series has as its system RPMI-8226 cells. The settings on record: suboptimal combinations with etoposide or melphalan. The method, then: Current anti-myeloma regimens incorporate multiple drugs with different mechanisms of action. RPMI-8226 cells were treated with 2-OMeA1 in combination with standard chemotherapeutic agents used in myeloma treatment: etoposide, melphalan, or daunorubicin (Sonneveld and Segeren, Eur. J. Cancer 39:9-18, 2003).

Another series concerns TABX2S cells. The series can be described thus: Cellular respiration by oximetry. It is filed as cell-based, murine. Particulars: higher concentrations (above 1 μg/ml). The method, then: (§1) Briefly, TABX2S cells (over-expressing Bcl-xL) and control cells (TAMH.neo) were suspended in air-equilibrated complete medium at a density of 3 million cells per milliliter and placed in a thermostatted electrode chamber at 37° C.

For the next series, the system named is TAMH.neo control cells. The series can be described thus: Cellular respiration by oximetry. The format is cell-based, murine. The settings on record: higher concentrations (above 1 μg/ml). As for the experimental part:
as §1

For the next series, the system named is U266. The series can be described thus: Propidium iodide exclusion / flow cytometry cytotoxicity. It is filed as cell-based, human. The settings on record: 5 to about 20 μg/ml. As for the experimental part: (§2) Cell survival was assayed by exclusion of propidium iodide (PI; 10 μg/ml) by unfixed cells. Annexin V-FITC (Pharmingen) or 3, 3′-dihexyloxacarbocyanine iodide (DiOC6(3); Molecular Probes) staining was analyzed together with PI to discriminate early apoptotic cells. Apoptotic cells were also measured as sub-G1 events among ethanol-fixed cells stained with 10 μg/ml PI. All cell samples were analyzed using a benchtop FACSCalibur™ (Becton Dickinson, San Jose, Calif.). Flow data were analyzed using MultiCycle AV software (Phoenix Flow Systems). For intracellular pH measurements, cell pellets were washed once and resuspended in 2 ml of HEPES-buffered medium (no phenol red and no serum). Carboxy-SNARF-1-AM (Molecular Probes, 1 mM stock in DMSO, stored at −20° C.) was added to a final concentration of 10 μM, and the cells were incubated for 30 min at 37° C. Following incubation with SNARF, cells were sedimented and the pellets were held on ice. Immediately before analysis, pellets were resuspended in […] (HBSS; experimental buffer) or high-[K+] buffer containing nigericin (calibration samples).
On the technique in general: Flow cytometry measures light scatter and fluorescence of single cells or particles in a stream.

The test system of another series is NCI-H929. The series is described as above. It is filed as cell-based, human. The settings on record: 5 to about 20 μg/ml. The method, then:
as §2

Series [2] has as its system mitochondria with normal levels of Bcl-xL expression. Briefly: JC-1 membrane potential of isolated mitochondria. Also noted: species or system murine. As for the experimental part: Isolated mitochondria were loaded with JC-1 prior to treatment, and mitochondrial labeling was determined using FACS. […] Antimycin A-treated mitochondria with high levels of Bcl-xL had lower levels of JC-1 staining than parallel samples treated with CCCP. Uncoupled mitochondria still retain a significant Donnan potential because of trapped anionic species and it is likely that antimycin-induced PT and/or swelling of mitochondria led to a further reduction of this residual potential.
As observed for the parent compound, antimycin A3, mitochondria with normal levels of BCl-xL expression were not affected by the 2-methoxy analog.

In another series the test system is cellular O2 consumption. Briefly: Cellular O2 consumption. The settings on record: compared to antimycin A3. It is filed as cell-based.
The nature of series [3]: Binding to plasma proteins (ultrafiltration). The format is in vitro ADME, dog. Particulars: dog, plasma, presence of NaF+EDTA, read-out: Protein binding, Dog. As for the experimental part: Solutions of 2-OMe antimycin A3 were diluted with plasma (dog or human) containing NaF+EDTA to final concentrations of 1.0 or 0.2 μg/ml. Controls were diluted with water to the same final concentrations. These preparations were incubated at 37° C. for 20 min, at which time portions were taken and placed in the sample reservoirs of Amicon Centrifree® ultrafiltration systems (Millipore Co., Bedford, Mass.). At 37° C., the filter systems were centrifuged until the reservoirs were dry. From each filtrate, portions were taken for analysis by HPLC. The amounts present were designated as “free drug” (F). The concentrations of the unfiltered solutions were also determined by triplicate analyses. This amount represented the “total drug” concentration (T). The percentage of 2-OMe antimycin A3 bound to plasma proteins was calculated by the following formula: % bound=((T−F)/T)×100
Similar experiments were performed for 2-OMe antimycin A3 in dog or rat plasma in the absence of NaF/EDTA.

Another series in a line: S9 metabolism. It is filed as in vitro ADME, human. The settings on record: pH 7.4. The source says: All chemicals and solvents used for sample preparation and HPLC analysis were analytical grade. Acetonitrile, methanol, and phosphoric acid were purchased from Fisher Scientific (Atlanta, Ga.). Hepatic S9 fractions from male CD2F1 mice, male Sprague Dawley rats, male dogs, and male humans were purchased from In Vitro Technologies (Boston, Mass.). The National Cancer Institute provided samples of the test compounds and male CD2F1 mice. Fischer 344 rats with implanted jugular cannulas were obtained from Charles River Laboratories (Cambridge, Mass.). All animal use and care procedures were approved by the Institutional Committee on Animal Use and Care at the University of Alabama at Birmingham and conformed to the guidelines found in Guide for the Care and Use of Laboratory Animals, National Academy Press, 1996.
To evaluate metabolism of the test compounds by S9 fractions from various species, reaction systems maintained at 37° C. contained 2-OMe-A3 (500 ng/ml) and S9 (1 mg protein/ml) in 100 mM Tris buffer (pH 7.4). At selected times, triplicate portions of the mixtures were removed and processed for analysis, as described above.

Broadly, the half-life is how long it takes for the measured level to halve. High values mean slow loss, low ones fast loss.

For `CCCCCC[C@H]1C(=O)O[C@H](C)[C@H](NC(=O)c2cccc(NC=O)c2OC)C(=O)O[C@@H](C)[C@@H]1OC(=O)CC(C)C` [2-OMeA1, 2-methoxy antimycin A1], the “stability in the medium from cell cultures” value in series [1] is on record as “notably less stable in the absence of fetal bovine serum”. For the same compound, in the series with RPMI-8226 cells, the killing in combination entry is on record as “Supra-additive killing”.
For antimycin A, the “basal oxygen consumption maintained” value in the series with TABX2S cells is “about 20%”. Moreover, the oxygen consumption result in the series with TAMH.neo control cells is given as “almost completely inhibited”. The “sensitivity (PI exclusion)” value in the series on U266 and in the series with NCI-H929 was “sensitive” throughout.
On to `CCCC[C@H]1C(=O)OC(C)[C@H](NC(=O)c2cccc(NC=O)c2OC)C(=O)O[C@@H](C)C1OC(=O)CC(C)C` (some centres unmarked) [2-OMeA3, Antimycin A3 methyl ether], for which the “mitochondrial depolarization (JC-1)” value in series [2] is recorded as “not affected”. In the series on cellular O2 consumption, the “effect on cellular O2 consumption” value is recorded as “negligible effect”. Besides, the fraction unbound at 20 min, 1000 ng/ml in [3] was less than 0.01. Further, the half-life entry in the series “S9 metabolism” (500 ng/ml, 37° C.) is reported as “only slightly less than that for the control”. Also, the half-life at 2000 ng/ml in “S9 metabolism” (male, human, hepatic S9 fraction, 2000 ng/ml) was roughly 10 min.

The record behind these values is patent publication US20050239873A1 (priority 1999, published 2005).
